{
  "source": "patent US9662377B2",
  "about": "“Therapeutic composition for treatment of glioblastoma” (REGENTS OF THE UNIVERSITY OF MINNESOTA, priority 2010, dated 2017)",
  "test_system": "PBMCs from CMV sera-positive donors",
  "experiment": "CMV assay (pp65-dependent IFNγ production)",
  "type": "cell-based, human",
  "method": "5×10^5 HLA-A2^+ iDCs were pulsed with 100 μg of tumor lysates derived in 5% or 20% O2+/−10 μg of pp65 HLA-A2-restricted CMV antigen (NLVPMVATV) (SEQ ID NO: 15) and matured as described in the methods section. Following maturation, DCs were washed 3 times, and 5×10^5 PBMCs from CMV sera-positive donors were added to DCs. CMV sera-negative PBMCs were used as a negative control. Cells were incubated for 48 h, and supernatant was analyzed by cytometric bead array (BD Biosciences) for IFNγ. Cells were cultured for an additional 24 h, stained with anti-CD8, pp65 pentamer (ProImmune), and intracellularly stained for IFNγ production.\nThe inventors established an assay to determine if TLs altered DC-mediated CD8 T cell priming from a defined antigen not present in the TLs. To accomplish this, TLs were mixed with pp65 peptide, a specific marker antigen with well-defined CD8 T cell responses. […] Soluble IFNγ in the tissue culture supernatant was quantified as a measure of CD8 T cell activation. There was a background of […] of IFNγ detected in the supernatant when TLs were pulsed in the absence of pp65, possibly due to activation of T cells or natural killer (NK) cells irrespective of pp65 (FIG. 8B).",
  "data": [
    {"sequence": "NLVPMVATV [pp65]", "values": [
      {"measurement": "Response of sera-negative donor PBMCs", "setting": "CMV sera-negative donor PBMCs", "value": "did not respond"},
      {"measurement": "IFNγ level above background", "setting": "sera-positive donor PBMCs primed with pp65 alone (no TLs)", "value": "2-4 fold"}
    ]}
  ]
}
